EP4417201A1, “PHARMACEUTICAL COMPOSITIONS FOR USE IN CANCER TREATMENT” (Robert Bosch Gesellschaft für medizinische Forschung mbH, priority 2023, dated 2024)

Target: T1, purified porcine tubulin (Sus scrofa, UniProt P02550+P02554)
T1 construct: purchased Cytoskeleton, Denver, CO, USA BK006P
Test: Tubulin polymerization assay
Format: biochemical
Settings: 10 µM, absorbance at 340 nm, 35°C
Method: A tubulin polymerization assay kit (part# BK006P, Cytoskeleton, Denver, CO, USA) was used to address the direct effects of chemical compounds on tubulin polymerization dynamics. A porcine >99% pure tubulin preparation (3 mg/ml) free of microtubule-associated proteins in 80 mM PIPES pH 6.9, 2 mM MgCl2, 0.5 mM EGTA, 1 mM GTP, and 10.2% glycerol was incubated with Formula A-1 (100 µM), Formula A-2(100 µM), paclitaxel (10 µM), or buffer. Microtubule polymerization was initiated by tubulin addition; changes in microtubule turbidity were measured kinetically at 340 nm at 35°C (EnSpire Multimode Plate Reader 2300, PerkinElmer).
To determine whether the influence of compounds of Formula A-1 and Formula A-2 on microtubule formation was due to on-target activity, the direct effect of chalcone compounds of Formula A on tubulin polymerization rates was examined by incubation of purified porcine tubulin with Formula A-1 or Formula A-2 and comparison of the results with those of paclitaxel, a well-established microtubule-stabilizing agent. Microtubule formation was measured kinetically at an absorbance of 340 nm.

T1 sequence (P02550 whole entry): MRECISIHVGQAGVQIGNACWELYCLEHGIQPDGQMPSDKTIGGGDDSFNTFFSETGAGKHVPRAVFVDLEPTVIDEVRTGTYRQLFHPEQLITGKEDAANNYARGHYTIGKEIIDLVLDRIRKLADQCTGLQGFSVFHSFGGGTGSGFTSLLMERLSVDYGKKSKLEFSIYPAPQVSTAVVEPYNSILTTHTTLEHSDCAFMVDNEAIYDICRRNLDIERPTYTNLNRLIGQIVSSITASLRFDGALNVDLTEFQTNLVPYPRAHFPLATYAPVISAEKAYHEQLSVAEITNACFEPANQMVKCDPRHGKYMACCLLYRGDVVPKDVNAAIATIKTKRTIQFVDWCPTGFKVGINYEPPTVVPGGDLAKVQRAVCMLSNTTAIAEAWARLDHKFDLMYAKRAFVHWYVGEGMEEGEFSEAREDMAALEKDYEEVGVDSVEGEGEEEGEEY
T1 sequence (P02554 whole entry): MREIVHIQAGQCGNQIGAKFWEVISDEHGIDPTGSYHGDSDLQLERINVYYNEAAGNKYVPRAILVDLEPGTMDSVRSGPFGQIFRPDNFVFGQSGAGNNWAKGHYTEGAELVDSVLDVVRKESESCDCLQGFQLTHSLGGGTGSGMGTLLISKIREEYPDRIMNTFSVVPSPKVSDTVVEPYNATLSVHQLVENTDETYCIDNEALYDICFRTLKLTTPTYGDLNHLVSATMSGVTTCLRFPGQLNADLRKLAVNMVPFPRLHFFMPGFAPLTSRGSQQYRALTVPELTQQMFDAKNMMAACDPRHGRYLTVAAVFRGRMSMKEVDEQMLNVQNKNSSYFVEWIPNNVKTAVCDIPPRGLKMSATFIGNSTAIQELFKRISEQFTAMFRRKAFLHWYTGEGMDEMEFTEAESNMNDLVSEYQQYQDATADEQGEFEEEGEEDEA

CC(=O)O[C@H]1C(=O)[C@@]2(C)[C@H]([C@H](OC(=O)c3ccccc3)[C@]3(O)C[C@H](OC(=O)[C@H](O)[C@@H](NC(=O)c4ccccc4)c4ccccc4)C(C)=C1C3(C)C)[C@]1(OC(C)=O)CO[C@@H]1C[C@@H]2O [paclitaxel]
tubulin polymerization: the kinetics of tubulin polymerization is enhanced and the polymerization equilibrium shifts towards polymerized tubulin
